In PMC7427800 (Scientific Reports, 2020):
Read-outs that look alike come from different tables or passages of the source.

Tests used:
human MOR [1] = molecular target: T1, human MOR (Homo sapiens, UniProt P35372); experiment: biochemical; format: biochemical; parameters: host or cells: CHO (CHO-hMOR), cell membranes; details: for agonist character at the MOR: CHO-hMOR; for G protein activation %stim: percentage stimulation relative to DAMGO
human MOR [2] = molecular target: T1, human MOR; experiment: biochemical; format: binding; parameters: host or cells: CHO (CHO-hMOR), cell membranes
dopamine D1 receptor = test system: dopamine D1 receptor; parameters: method as in PMID 18830156, PMID 30308941; details: cell-based functional assays; cited from earlier work
human KOR = molecular target: T2, human KOR (Homo sapiens, UniProt P41145); format: binding
T2 construct: host or cells: CHO (CHO-hKOR), cell membranes

human DOR = molecular target: T3, human DOR (Homo sapiens, UniProt P41143); format: binding
T3 construct: host or cells: CHO (CHO-hDOR), cell membranes

[3] = rat, in vivo; cited from earlier work
human MOR [4] = molecular target: T1, human MOR; format: cell-based; parameters: host or cells: U2OS (PathHunter U2OS-hMOR-βarrestin2); details: PathHunter, U2OS-hMOR
[5] = test system: acetic acid-induced writhing; experiment: acetic acid-induced writhing test; format: in vivo, mice; details: for reduction in the number of writhes / times less effective than morphine (0.5 mg/kg) at equianalgesic doses: mice; for reduction in the number of writhes: 30 min after administration; for antiwrithing response after naltrexone pretreatment: naltrexone 1 mg/kg s.c. 10 min before agonist; for times less effective than morphine (0.5 mg/kg) at equianalgesic doses: writhing assay, s.c.
Experimental: Male CD1 mice (30–35 g, 7–8 weeks old) were obtained from the Center of Biomodels and Experimental Medicine (CBEM) (Innsbruck, Austria). Mice were group-housed in a temperature-controlled room with a 12 h light/dark cycle and with free access to food and water. All animal studies were conducted in accordance with ethical guidelines and animal welfare standards according to Austrian regulations for animal research and were approved by the Committee of Animal Care of the Austrian Federal Ministry of Science and Research. Test compounds or vehicle were administered by s.c. route in a volume of 10 µL/1 g of body weight.
Writhing was induced in mice by intraperitoneal (i.p.) injection of a 0.6% acetic acid aqueous solution[26]. Drugs or control (vehicle) were s.c. administered, and after 25 min (5 min prior to testing), each animal received i.p. acetic acid solution. Each mouse was placed in individual transparent Plexiglas chambers, and the number of writhes was counted during a 10 min observation period. […] For the antagonism study, naltrexone (1 mg/kg) was s.c. administered 10 min before the opioid agonist, and writhing as assessed as described above. Each experimental group included five to six animals.

T1 sequence (P35372 whole entry): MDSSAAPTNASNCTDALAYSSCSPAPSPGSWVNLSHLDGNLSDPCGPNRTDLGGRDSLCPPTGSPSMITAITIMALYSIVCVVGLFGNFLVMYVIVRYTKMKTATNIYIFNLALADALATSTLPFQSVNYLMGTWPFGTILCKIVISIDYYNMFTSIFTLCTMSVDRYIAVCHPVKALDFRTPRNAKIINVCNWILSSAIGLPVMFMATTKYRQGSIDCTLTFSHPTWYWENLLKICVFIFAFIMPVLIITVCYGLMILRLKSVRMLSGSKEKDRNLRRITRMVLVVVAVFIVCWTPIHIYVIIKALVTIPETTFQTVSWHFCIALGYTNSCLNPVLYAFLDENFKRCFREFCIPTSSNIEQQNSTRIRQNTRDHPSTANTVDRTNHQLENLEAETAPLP
T2 sequence (P41145 whole entry): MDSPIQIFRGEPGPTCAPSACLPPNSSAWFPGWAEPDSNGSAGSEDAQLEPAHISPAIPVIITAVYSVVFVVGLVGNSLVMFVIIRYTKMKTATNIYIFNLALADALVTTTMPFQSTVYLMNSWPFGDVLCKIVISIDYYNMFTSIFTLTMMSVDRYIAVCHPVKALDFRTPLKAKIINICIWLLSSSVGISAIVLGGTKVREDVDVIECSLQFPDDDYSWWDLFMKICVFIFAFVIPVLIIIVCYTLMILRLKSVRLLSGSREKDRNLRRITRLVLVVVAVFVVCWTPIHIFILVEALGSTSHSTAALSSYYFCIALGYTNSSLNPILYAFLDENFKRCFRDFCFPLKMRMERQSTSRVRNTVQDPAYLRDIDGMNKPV
T3 sequence (P41143 whole entry): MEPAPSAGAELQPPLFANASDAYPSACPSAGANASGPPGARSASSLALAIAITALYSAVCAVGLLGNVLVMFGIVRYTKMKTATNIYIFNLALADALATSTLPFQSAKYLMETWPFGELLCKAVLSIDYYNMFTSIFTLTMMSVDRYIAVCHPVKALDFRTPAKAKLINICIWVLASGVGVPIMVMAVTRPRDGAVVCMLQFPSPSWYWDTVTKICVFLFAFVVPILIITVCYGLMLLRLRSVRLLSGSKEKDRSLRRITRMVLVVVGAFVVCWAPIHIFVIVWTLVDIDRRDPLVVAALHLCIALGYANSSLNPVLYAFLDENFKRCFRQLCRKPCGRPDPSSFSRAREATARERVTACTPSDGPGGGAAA

Structure (SMILES): COc1cc2c(cc1OC)C1C(C)c3ccc(OC)c(OC)c3CN1CC2 (centres unmarked) [Corydaline (2), corydaline]
- EC50 (human MOR [1]): 1500 ± 440 nM
- agonist character at the MOR (human MOR [1]; [35S]GTPγS binding): full agonists
- G protein activation %stim (human MOR [1]; [35S]GTPγS binding): 104 ± 6%
- Ki (human MOR [2]): 1230 ± 290 nM
- activity at the dopamine D1 receptor (dopamine D1 receptor): antagonist activity
- specific binding to the human KOR (human KOR): did not specifically bind
- alterations in general behavior (locomotor activity, sedation) (mouse, in vivo): no major alterations in locomotor activity and no sedation
- specific binding to the human DOR (human DOR): did not specifically bind
- blood–brain barrier crossing [3]: can effectively cross the blood–brain barrier
- β-arrestin2 recruitment upon activation of the MOR (human MOR [4]): failed to induce β-arrestin2 recruitment
- reduction in the number of writhes ([5]; 10 mg/kg s.c.): 59%
- antiwrithing response after naltrexone pretreatment [5]: antagonized
- times less effective than morphine (0.5 mg/kg) at equianalgesic doses [5]: ~20 times

Structure (SMILES): COc1cc2c3c(c1O)-c1c(ccc(OC)c1OC)C[C@@H]3N(C)CC2 [Corydine (1), corydine]
- EC50 (human MOR [1]): 510 ± 110 nM
- agonist potency, times greater than corydaline (2) (human MOR [1]; [35S]GTPγS binding): about 3 times
- agonist potency, times less potent than DAMGO (human MOR [1]; [35S]GTPγS binding): 34 times
- agonist character at the MOR (human MOR [1]; [35S]GTPγS binding): full agonists
- G protein activation %stim (human MOR [1]; [35S]GTPγS binding): 102 ± 6%
- Ki (human MOR [2]): 2820 ± 610 nM
- specific binding to the human KOR (human KOR): did not specifically bind
- alterations in general behavior (locomotor activity, sedation) (mice, s.c., tested doses (5 mg/kg corydine, 10 mg/kg corydaline)): no major alterations in locomotor activity and no sedation
- specific binding to the human DOR (human DOR): did not specifically bind
- β-arrestin2 recruitment upon activation of the MOR (human MOR [4]): failed to induce β-arrestin2 recruitment
- reduction in the number of writhes ([5]; 5 mg/kg s.c.): 51%
- antiwrithing response after naltrexone pretreatment [5]: antagonized
- times less effective than morphine (0.5 mg/kg) at equianalgesic doses [5]: ca. 10 times

Structure (SMILES): C[C@@H](NC(=O)[C@@H](N)Cc1ccc(O)cc1)C(=O)NCC(=O)N(C)[C@@H](Cc1ccccc1)C(=O)NCCO [DAMGO, reference compound]
- G protein activation %stim (human MOR [1]; [35S]GTPγS binding): 100%
- β-arrestin2 recruitment upon activation of the MOR (human MOR [4]): effectively recruited β-arrestin2
- β-arrestin2 recruitment %stim (human MOR [4]; relative to DAMGO, – denotes no measurable activity): 100%
